Laboratory results from patent US20220378923A1, “BET DEGRADER” (KYOWA KIRIN CO., LTD., priority 2019, published 2022).

Legend:
Assay type in all cases: cell-based
Details in all cases: SU-DHL-4 cells, test compound 100 nmol/L, 24 hours
BRD4 = biological target: T1, BRD4 (Homo sapiens, UniProt O60885); assay: Evaluation of BET proteolysis in SU-DHL-4 cell line by Western blotting: BRD4 (Test Example 4)
T1 construct: Changes in the amount of BRD4, BRD2 and BRD3 proteins in the SU-DHL-4 cell line; endogenous in cells; host or cells: SU-DHL-4
Description: (§1) The human DLBCL cell line SU-DHL-4 was purchased from DSMZ. SU-DHL-4 was passaged using RPMI1640 medium containing 10 vol % FBS. The culture conditions were 37° C. and 5% CO2.
Anti-BRD4 antibody: BRD4 (E2A7X) Rabbit mAb (Cell Signaling Technology, Cat No. #13440S)
(§2) Changes in the amount of BRD4, BRD2 and BRD3 proteins in the SU-DHL-4 cell line by the test compound (compound 1b, compound 1l or compound P3) were detected by WB. The compound P3 is a compound described as example 14 in the known Patent Document 2 (WO 2015/081284), which was synthesized according to the method described in Patent Document 2 and used in this test.
(§3) The cultured SU-DHL-4 cells were seeded at 6×10^5 cells/well in a transparent 6-well plate (Code No. 140675, Thermo Fisher Scientific). After seeding, the cells were pre-cultured at 37° C. in a carbon dioxide gas incubator for 18 to 25 hours. Next, a 0.1 mmol/L DMSO solution of the test compound was prepared, diluted so that the concentration was 200-fold of the final concentration in RPMI1640 medium containing the above FBS and PS, and 1/200 volume of the diluted solution was added to each well. At this time, the final concentration of DMSO was adjusted to be 0.1 vol %. After adding the test compound, the cells were cultured at 37° C. in a carbon dioxide gas incubator for 24 hours.
(§4) After collecting the cells, the supernatant was aspirated, and Lysis buffer 6 (R&D systems, Cat No. 895561) was added to the pellet at 0.1 mL/sample. After incubating on ice for 60 minutes, the supernatant was collected by centrifugation at 15000 rpm for 10 minutes at 4° C.
(§5) Using Pierce BCA Protein Assay Kit (Thermo Fisher, Cat No. 23225), the protein concentration of each sample was quantified according to the manual attached to the kit, and then was diluted and prepared with Lane Marker Reducing Sample Buffer (5×) (Thermo Fisher, Cat No. 39000) and Lysis buffer 6 to 1 mg/mL. The cells were incubated at 95° C. for 5 minutes to prepare WB samples. WB samples were stored at −30° C. until electrophoresis.
(§6) The WB sample was thawed and used after vortex mixing and spin down. […]

BRD2 = biological target: T2, BRD2 (Homo sapiens, UniProt P25440); assay: Evaluation of BET proteolysis in SU-DHL-4 cell line by Western blotting: BRD2 (Test Example 4)
T2 construct: Changes in the amount of BRD4, BRD2 and BRD3 proteins in the SU-DHL-4 cell line; endogenous in cells; host or cells: SU-DHL-4
Description: as §1
Anti-BRD2 antibody: Brd2 (D8964) Rabbit mAb (Cell Signaling Technology, Cat No. #5848S)
as §2, §3, §4, §5, §6

BRD3 = biological target: T3, BRD3 (Homo sapiens, UniProt Q15059); assay: Evaluation of BET proteolysis in SU-DHL-4 cell line by Western blotting: BRD3 (Test Example 4)
T3 construct: Changes in the amount of BRD4, BRD2 and BRD3 proteins in the SU-DHL-4 cell line; endogenous in cells; host or cells: SU-DHL-4
Description: as §1
Anti-BRD3 antibody: Anti-BRD3 antibody (2088C3a) (Santa Cruz Biotechnology, Cat No. sc-81202)
as §2, §3, §4, §5, §6

T3 sequence (Q15059 whole entry): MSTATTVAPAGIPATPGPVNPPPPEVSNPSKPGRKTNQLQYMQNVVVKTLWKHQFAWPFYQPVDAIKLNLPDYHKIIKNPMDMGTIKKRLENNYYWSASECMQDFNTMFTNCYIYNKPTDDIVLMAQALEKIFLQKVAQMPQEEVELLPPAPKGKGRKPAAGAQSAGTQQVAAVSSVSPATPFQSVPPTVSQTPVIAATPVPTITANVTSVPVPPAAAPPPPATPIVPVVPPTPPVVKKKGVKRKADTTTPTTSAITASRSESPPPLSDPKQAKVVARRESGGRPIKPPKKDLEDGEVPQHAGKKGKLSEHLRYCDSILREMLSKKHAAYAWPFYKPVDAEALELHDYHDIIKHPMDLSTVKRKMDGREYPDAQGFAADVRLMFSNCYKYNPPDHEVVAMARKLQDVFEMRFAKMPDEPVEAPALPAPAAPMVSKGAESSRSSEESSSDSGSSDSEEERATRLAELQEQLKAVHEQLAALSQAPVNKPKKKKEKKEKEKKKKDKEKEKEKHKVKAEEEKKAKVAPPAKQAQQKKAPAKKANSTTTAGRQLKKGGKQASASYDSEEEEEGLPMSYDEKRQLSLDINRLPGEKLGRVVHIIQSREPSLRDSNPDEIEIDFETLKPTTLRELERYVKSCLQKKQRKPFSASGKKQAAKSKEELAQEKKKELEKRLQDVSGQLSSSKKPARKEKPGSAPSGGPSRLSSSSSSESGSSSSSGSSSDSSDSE
T2 sequence (P25440 whole entry): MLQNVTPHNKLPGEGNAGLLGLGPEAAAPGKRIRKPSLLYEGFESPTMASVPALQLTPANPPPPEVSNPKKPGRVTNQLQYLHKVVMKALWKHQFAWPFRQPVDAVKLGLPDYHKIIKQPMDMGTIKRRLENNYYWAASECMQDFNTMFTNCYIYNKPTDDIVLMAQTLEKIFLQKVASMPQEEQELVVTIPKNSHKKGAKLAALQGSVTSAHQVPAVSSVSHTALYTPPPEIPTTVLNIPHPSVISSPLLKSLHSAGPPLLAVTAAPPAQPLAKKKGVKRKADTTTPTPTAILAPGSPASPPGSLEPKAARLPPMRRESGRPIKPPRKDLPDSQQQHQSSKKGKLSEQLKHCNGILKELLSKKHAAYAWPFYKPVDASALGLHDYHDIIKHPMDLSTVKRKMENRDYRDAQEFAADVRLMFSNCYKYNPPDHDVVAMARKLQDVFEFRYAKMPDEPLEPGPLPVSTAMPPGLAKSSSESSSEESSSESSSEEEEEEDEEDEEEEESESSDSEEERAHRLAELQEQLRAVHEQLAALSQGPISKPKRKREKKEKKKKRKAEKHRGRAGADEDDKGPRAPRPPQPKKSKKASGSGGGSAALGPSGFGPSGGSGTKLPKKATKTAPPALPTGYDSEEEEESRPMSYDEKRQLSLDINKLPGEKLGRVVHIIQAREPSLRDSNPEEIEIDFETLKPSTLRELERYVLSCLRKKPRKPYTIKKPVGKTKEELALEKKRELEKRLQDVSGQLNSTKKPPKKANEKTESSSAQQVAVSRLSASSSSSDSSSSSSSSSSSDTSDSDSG

Compound: CCNC(=O)C[C@@H]1N=C(c2ccc(SCCCCSc3ccc(C4=N[C@@H](CC(=O)NCC)c5nnc(C)n5-c5ccc(OC)cc54)cc3)cc2)c2cc(OC)ccc2-n2c(C)nnc21 [Compound P3, 2,2′-((4S,4'S)-6,6′-((butane-1,4-diylbis(sulfanediyl))bis(4,1-phenylene))bis(8-methoxy-1-methyl-4H-benzo[f][1,2,4]triazolo[4,3-a][1,4]diazepine-6,4-diyl))bis(N-ethylacetamide), reference compound]
- change in amount of BRD4 protein (band in Western blotting, FIG. 1) (BRD4): the band was not faint compared with that of control
- change in amount of BRD2 protein (band in Western blotting, FIG. 1) (BRD2): the band was not faint compared with that of control
- change in amount of BRD3 protein (band in Western blotting, FIG. 1) (BRD3): the band was not faint compared with that of control
